{
  "source": "patent US20150164754A1",
  "about": "“ANTI-AGEING COMPOSITION CONTAINING DEHYDROGENATED ABIETIC ACID AS ACTIVE INGREDIENT” (AMOREPACIFIC CORPORATION, priority 2012, published 2015)",
  "key": {"human normal fibroblasts [1]": {"tested_on": "human normal fibroblasts", "experiment": "Effect on fibroblast proliferation (MTT)", "assay_type": "cell-based", "settings": "10 μM dehydrogenated abietic acid, 24 hours, relative to group not treated with sample", "method": "The effect of dehydrogenated abietic acid (purchased from Ramidus AB) of Formula 1 on wrinkle reduction was measured. In order to examine the effect of dehydrogenated abietic acid on skin cell proliferation that reduces wrinkles, human normal fibroblasts were seeded into a 96-well microplate at a density of 1×10^4 cells/well, and incubated in DMEM (Dulbecco's Modified Eagle's Medium) medium in a CO2 incubator at 36.5° C. for 24 hours. After incubation, in Example 1, the medium was replaced with a serum-free medium containing 10 μM of dehydrogenated abietic acid, and then the cells were further incubated for 24 hours. In Comparative Example 1, cells not treated with dehydrogenated abietic acid were used. Then, 10 μl of (3-(4,5-dimethyl-thiazol-2-yl)2,5-diphenyl tetrazolium (MTT, 5 mg/ml) was added to each well, which was then allowed to stand for 4 hours, followed by removal of the medium. Then, 100 μl of dimethyl sulfoxide solution was added to each well, and the absorbance at 570 nm was measured with a microplate reader. Based on the absorbance measured as described above, the cell proliferation effect was calculated using the following equation. The results of the calculation are shown in Table 1 below. Cell proliferation effect (%)=(absorbance of group treated with sample/absorbance of group not treated with sample)×100 Equation 1"}, "human normal fibroblasts [2]": {"tested_on": "human normal fibroblasts", "experiment": "Effect on stimulation of collagen biosynthesis (PICP kit)", "assay_type": "cell-based", "settings": "10 μM dehydrogenated abietic acid, 48 hours, supernatant, 50 μg/ml ascorbic acid added", "method": "The effect of dehydrogenated abietic acid (purchased from Ramidus AB) of Formula 1 on the stimulation of collagen biosynthesis was measured. In order to examine the effect of dehydrogenated abietic acid on the stimulation of collagen biosynthesis, human normal fibroblasts were seeded into a 96-well microplate at a density of 1×10^4 cells/well, and incubated in DMEM (Dulbecco's Modified Eagle's Medium) medium in a CO2 incubator at 36.5° C. for 24 hours. After incubation, in Example 2, the medium was replaced with a serum-free medium containing 10 μM of dehydrogenated abietic acid, and then the cells were further incubated for 48 hours. In Comparative Example 2, cells not treated with dehydrogenated abietic acid were used. At 24 hours before completion of the incubation, 50 μg/ml of ascorbic acid was added to each well to stimulate collagen synthesis. After completion, each well was washed, and the medium was replaced with serum-free DMEM medium, after which the cells were further incubated for 24 hours. After incubation, the supernatant of each well was collected, and the amount of procollagen type-I C-peptide (PICP) in the supernatant was measured using a kit (Takara, Kyoto, Japan) to determine the amount of newly synthesized collagen. The amount of PICP that is the amount of collagen synthesized is expressed in units of ng/2×10^4 cells in Table 2 below."}},
  "data": [
    {"smiles": "CC(C)c1ccc2c(c1)CC[C@H]1[C@](C)(C(=O)O)CCC[C@]21C", "note": "[Example 1, dehydrogenated abietic acid]", "values": [
      {"measurement": "Cell proliferation effect (%)", "setting": "human normal fibroblasts [1]", "result": 60.0, "unit": "%"},
      {"measurement": "Amount of collagen synthesized (procollagen type-I C-peptide, PICP)", "setting": "human normal fibroblasts [2]", "result": 220, "unit": "ng/2 × 10^4"}
    ]}
  ]
}
